From article PMC7037273, “Phytochemical Screening and Antiprotozoal Effects of the Methanolic Berberis Vulgaris and Acetonic Rhus Coriaria Extracts” (Molecules, 2020)
Values after ≈ are worked out from the molar mass of the structure shown.

Experiments:
T. vaginalis = system: T. vaginalis; set-up: method as in PMID 29390009; conditions: cited from earlier work
MDBK cells = experiment: cells; format: cell-based, bovine
Protocol: (§1) Cultures of Human foreskin fibroblast (HFF; HFF-1 ATCC® SCRC-1041™), Madin–Darby bovine kidney (MDBK; ECACC) and mouse embryonic fibroblast (NIH/3T3; ATCC® CRL-1658™) cell lines were retrieved from −80 °C stock and cultured continuously at 37 °C under atmosphere 5% CO2 in our laboratory. The NIH/3T3 and HFF cell lines were maintained in Dulbecco Modified Eagle’s Medium (DMEM; Gibco, Grand Island, NY, USA), while MDBK cell line grown in Minimum Essential Medium Eagle (MEM; Gibco). Each medium was treated with 1% glutamine, 10% fetal bovine serum and 0.5% penicillin/streptomycin (Gibco). Every 72 to 96 h, the medium was replaced, and once 80% confluence was reached, the cell collection was performed by sub-culture protocol. To confirm the absence of mycoplasma contamination, 4,6-diamidino-2-phenylindole dihydrochloride (Sigma-Aldrich) stain was used [9].
(§2) The cell viability test was conducted in a 96-well plate as described elsewhere [4, 9, 51, 52]. Briefly, an aliquot of (100 µL) cells was implanted at a concentration of 5 × 10^4 cells/mL in DMEM or MEM with fetal bovine serum and incubated overnight under atmosphere 5% CO2 at 37 °C for attachment. […] After a 24-h incubation, Cell Counting Kits-8 (CCK-8) (10 µL) was added per well followed by the incubation of the plate for another 3 hours and a microplate reader was used to measure the absorbance at 450 nm.

B. microti = experiment: in vivo chemotherapeutic efficacy in B. microti-infected BALB/c mice
Protocol: MEBV and AERC were examined for their in vivo chemotherapeutic efficacy using B. microti-infected BALB/c mice according to a procedure described elsewhere. Briefly, twenty-five mice were placed in an environment free from pathogens with 22 °C temperature and adjusted humidity and under 12 h light and 12 h darkness and randomly distributed into five groups. All mice in groups 2 through 5 obtained 500 μL of 1 × 10^7 B. microti-iRBC by intraperitoneal (i.p.) injection. Group 1 served as a negative control and was neither infected nor treated. At 1% parasitemia, drug treatment of the mice […]. continuing for five days. Group 2 act as a positive control group and received 95% double-distilled water (DDW) and 5% DMSO. Groups 3 and 4 administered 150 mg/kg body weight (BW) of MEBV and AERC by the oral route, respectively. […] Furthermore, the hematological parameters, including HGB, RBCs, and HCT percentage were examined every four days using an automatic hematology analyzer (Celltac α MEK-6450, Nihon Kohden, Tokyo, Japan) to detect the effect of MEBV and AERC on the retrogression of anemia related to Babesia infection. […]

[1] = system: L. donovani promastigotes; set-up: method as in PMID 2360830; conditions: read-out: IC50 leishmanicidal effect; cited from earlier work
HFF cells = format: cell-based; conditions: human, 24 h, 100 µM
Protocol: as §1, §2

NIH/3T3 cells = conditions: mouse, 24 h, 100 µM
Protocol: as §1, §2

[2] = system: Trypanosoma brucei brucei; set-up: method as in PMID 28654013; conditions: cited from earlier work

For `C=CCc1ccc(OC)c(OC)c1` [methyleugenol], which “IC50 growth of T. vaginalis” value (T. vaginalis) is on record?
Its value is 100 µg/mL.

For `CC(C)/N=c1\cc2n(-c3ccc(Cl)cc3)c3ccccc3nc-2cc1Nc1ccc(Cl)cc1` [CLF, clofazimine], which EC50 (MDBK cells; Bos taurus, MDBK cells, reference drug, read-out: EC50 MDBK cell viability) is on record?
Its EC50 is 34 ± 3.4 µM.

For `C=C1CC/C=C(\C)CC[C@@H]2[C@@H]1CC2(C)C` [β-caryophyllene], which “IC50 growth of T. vaginalis” value (T. vaginalis) is on record?
The value was 100 µg/mL.

With `CC(=O)NCC(=O)O.CC(=O)NCC(=O)O.N=C(N)c1ccc(N=NNc2ccc(C(=N)N)cc2)cc1` [DMA, diminazene aceturate] as the compound, how does the peak parasitemia level (B. microti; 25 mg/kg BW, 5 days (day 4 to 8 p.i.), B. microti-infected BALB/c mice) read?
Its peak parasitemia level is 5%.

What about the “inhibition of B. microti multiplication” value (B. microti; 25 mg/kg, eighth day post-infection) of the same compound?
The value was 92%.

Which IC50 [1] does the source give for `COc1ccc2cc3[n+](cc2c1OC)CCc1cc2c(cc1-3)OCO2` [berberine] here?
Its IC50 is 7.1 µM.

Which “effect on cell viability” value (MDBK cells; bovine, 24 h, 100 µM) does the source give for `O=C1C(O)=C([C@H]2CC[C@H](c3ccc(Cl)cc3)CC2)C(=O)c2ccccc21` [ATV, atovaquone] here?
The value was “neither DMA nor ATV (final concentration 100 µM) restricted the viability”.

And the “effect on cell viability” value (HFF cells)?
Its value is “neither DMA nor ATV (final concentration 100 µM) restricted the viability”.

And the “effect on cell viability” value (NIH/3T3 cells)?
The value was “neither DMA nor ATV (final concentration 100 µM) restricted the viability”.

Which IC50 antitrypanosomal activity [2] does the source give for `CC(C)=CCCC(C)c1ccc(C)cc1` (stereo not drawn) [α-curcumene] here?
Its IC50 antitrypanosomal activity is 13.38 µg/mL (≈ 66.1 µM).

What about the “IC50 growth of T. vaginalis” value (T. vaginalis) of the same compound?
The value was 100 µg/mL.
